Patent publication US5368707A, “Convenient determination of trace lead in whole blood and other fluids” (priority 1993, dated 1994)

Legend:
[1] = target: T1, isocitrate dehydrogenase (Sus scrofa, UniProt P33198); assay: Amperometric lead inhibition of ICDH in homogeneous aqueous solution (Example 1); type: biochemical, pig; details: pH 8.5 Tris; for Current: 0 V
T1 construct: purchased Sigma, St. Louis, Mo; ICD Type VI
T1 sequence (P33198 9-421): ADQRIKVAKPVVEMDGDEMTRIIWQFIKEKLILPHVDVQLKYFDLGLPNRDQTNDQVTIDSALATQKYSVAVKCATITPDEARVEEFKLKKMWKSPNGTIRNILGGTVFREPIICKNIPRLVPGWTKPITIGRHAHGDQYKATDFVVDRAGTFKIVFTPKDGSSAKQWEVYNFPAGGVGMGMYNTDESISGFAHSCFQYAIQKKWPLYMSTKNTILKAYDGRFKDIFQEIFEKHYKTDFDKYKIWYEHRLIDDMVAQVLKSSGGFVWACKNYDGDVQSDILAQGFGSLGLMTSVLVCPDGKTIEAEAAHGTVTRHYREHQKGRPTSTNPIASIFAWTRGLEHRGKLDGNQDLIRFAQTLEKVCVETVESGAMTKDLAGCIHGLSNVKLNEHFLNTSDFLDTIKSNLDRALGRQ
Experimental: Pig heart NADP-linked isocitric dehydrogenase (ICD, EC 1.1.1.42), an oxidoreductase, is sensitive to trace levels of lead ion as low as 1 μg/dl. […] In fact, at low concentrations of activator, e.g., <200 ppb Mn^++, the activity of ICD is proportional to Mn^++ and may be used to determine activator concentration (Guilbault, 1970). Inactivation by inhibitors is useful for determining inhibitor concentration. Specificity of enzymes for activators, or inhibitors, is not as great as for the natural substrate of the enzyme, but in some cases inhibitor concentration may be selectively determined. Silver and mercury have been determined in the presence of each other using isocitrate dehydrogenase (Mealor and Townshend, 1968). However, until now, there has been no satisfactory rapid amperometric method to determine lead ion based on ICD inhibition, much less a simple method to determine low lead ion concentrations in whole blood.
The following example illustrates determination of trace amounts of lead ion in aqueous medium through the inhibition of isocitrate dehydrogenase (ICDH) in homogeneous solution.
Commercially available ICDH (Sigma Chemical Company, St. Louis, Mo.) typically contains considerable amounts of sulfate that interferes with lead ion inhibition of ICDH. Dialysis of ICDH against low ionic strength phosphate buffer caused loss of its activity, which was restored by addition of Mn^2+.
A glassy carbon rod of 3 mm diameter was wrapped in teflon tubing as working electrode and surrounded with a layer of Pt foil as the counter electrode with a silver wire placed in between as the reference electrode. At least one layer of teflon was inserted between two of the three electrodes. All three electrode surfaces were on the same plane. Tubing was fixed on the top of the coplanar electrode surface with an O-ring, forming a microcell of 100-200 μl in volume.
To the microcell was added in sequence: 100 μl 50 mM pH 8.5 Tris buffer, ca. 0.3-0.4 units ICDH and, after 15 min, 5 μl 25 mM NMP-MS, 5 μl 60 mM NADP. The background current was measured at 0 V. 10 μl of 0.5M isocitrate was added and the current measured again. The difference in the two signals was taken as due to the oxidation of isocitrate catalyzed by ICDH.
To measure lead inhibition of ICDH, lead ion was added to the above solution after addition of ICDH but 15 min prior to the addition of NMP-MS and NADP. The current difference with isocitrate was due to inhibition of ICDH by the added lead. FIG. 3 indicates the sensitivity of the electrode to lead ion concentrations in the submicromolar range.

[2] = target: T1, isocitrate dehydrogenase; assay: Amperometric ICDH activity with lead-containing whole blood samples; type: biochemical, pig
Excerpt: The present invention concerns approaches to and methods for determining lead ion levels in whole blood. […] Isocitrate dehydrogenase for example is inhibited by lead. […] This is likely due to binding of lead by blood proteins such as albumin or other proteins, although it is also possible that the enzyme is stabilized by an unidentified blood component.

Compound: [Pb+2] [lead ion]
- % inhibition ([1]; 1.89 μM Pb++): 85.3%
- Current ([1]; 1.89 μM Pb++): 218 nA
- % inhibition ([1]; 90.9 μM Pb++): 98.2%
- Current ([1]; 90.9 μM Pb++): 26 nA
- inhibition of isocitrate dehydrogenase activity [2]: do not detectably inhibit isocitrate dehydrogenase activity
